Results taken from US9988371B2, “Benzimidazole analogues and related methods” (The Arizona Board of Regents, on Behalf of the University …, priority 2014, dated 2018).

Tests used:
Type in all cases: cell-based
hERG = molecular target: T1, hERG (Homo sapiens, UniProt Q12809); experiment: patch clamp hERG assay; conditions: patch clamp (GenScript)
T1 construct: purchased GenScript
Experimental: (§1) Pz-1 was minimally active in the patch clamp hERG assay, with an IC50 for the hERG assay of 10 μM (GenScript).

hERG (relative to RET) = molecular target: T2, hERG (relative to RET) (Homo sapiens, UniProt Q12809); experiment: patch clamp hERG assay; conditions: human; read-out: selectivity for RET over hERG
T2 construct: purchased GenScript
Experimental: as §1

RET/C634R-V804M = molecular target: T3, RET/C634R-V804M (Homo sapiens, UniProt P07949, C634R/V804M); experiment: RET auto-phosphorylation immunoblot in transfected HEK293 cells; conditions: 1 nM, 2 hrs, cells expressing RET/C634R-V804M
T3 construct: expressed in transfected cells; host or cells: HEK293
Excerpt: FIG. 2: Photographs of blots showing inhibition of phosphorylation of gate-keeper RET point mutant and rearranged RET oncoproteins by Pz-1 or vehicle (NT: not treated). HEK293 cells were transiently transfected with vectors expressing RET/C634R-V804M mutant (V804 is the gate-keeper RET residue), or RET/PTC1 (CCDC6-RET, found in papillary thyroid carcinoma and lung adenocarcinoma), RET/PTC3 (NCOA4-RET, found in papillary thyroid carcinoma and lung adenocarcinoma), or KIF5B-RET (found in lung adenocarcinoma). After 36 hr from transfection, cells were serum-starved for 12 hr and then treated for 2 hr with indicated concentrations of Pz-1. 50 μg of total cell lysates were subjected to immunoblotting with anti-phospho-Y1062 (αp1062) and anti-phospho-Y905 (αp905) RET antibodies. The blots were normalized using anti-RET (αRET) antibody.
The inhibition of RET auto-phosphorylation by Pz-1 was measured in several different cell lines including NIH3T3 fibroblasts expressing RET/C634Y or RET/M918T, TT expressing RET/C634W (MTC), Nthy-ory-3-1 (thyroid, non-transformed with RET; negative control), HEK293/RET/PTC1 (CCDC6-RET that can be found in PTC & lung cancer), HEK293/RET-KIF5B (that can be found in lung cancer), HEK293/RET/PTC3 (NCOA4-RET, that can be found in PTC & lung cancer), and HEK293 transfected with RET/C634R-V804M (FIGS. 1-3). […]

T3 sequence (P07949 29-1072 isoform P07949-2 C634R/V804M limits assumed): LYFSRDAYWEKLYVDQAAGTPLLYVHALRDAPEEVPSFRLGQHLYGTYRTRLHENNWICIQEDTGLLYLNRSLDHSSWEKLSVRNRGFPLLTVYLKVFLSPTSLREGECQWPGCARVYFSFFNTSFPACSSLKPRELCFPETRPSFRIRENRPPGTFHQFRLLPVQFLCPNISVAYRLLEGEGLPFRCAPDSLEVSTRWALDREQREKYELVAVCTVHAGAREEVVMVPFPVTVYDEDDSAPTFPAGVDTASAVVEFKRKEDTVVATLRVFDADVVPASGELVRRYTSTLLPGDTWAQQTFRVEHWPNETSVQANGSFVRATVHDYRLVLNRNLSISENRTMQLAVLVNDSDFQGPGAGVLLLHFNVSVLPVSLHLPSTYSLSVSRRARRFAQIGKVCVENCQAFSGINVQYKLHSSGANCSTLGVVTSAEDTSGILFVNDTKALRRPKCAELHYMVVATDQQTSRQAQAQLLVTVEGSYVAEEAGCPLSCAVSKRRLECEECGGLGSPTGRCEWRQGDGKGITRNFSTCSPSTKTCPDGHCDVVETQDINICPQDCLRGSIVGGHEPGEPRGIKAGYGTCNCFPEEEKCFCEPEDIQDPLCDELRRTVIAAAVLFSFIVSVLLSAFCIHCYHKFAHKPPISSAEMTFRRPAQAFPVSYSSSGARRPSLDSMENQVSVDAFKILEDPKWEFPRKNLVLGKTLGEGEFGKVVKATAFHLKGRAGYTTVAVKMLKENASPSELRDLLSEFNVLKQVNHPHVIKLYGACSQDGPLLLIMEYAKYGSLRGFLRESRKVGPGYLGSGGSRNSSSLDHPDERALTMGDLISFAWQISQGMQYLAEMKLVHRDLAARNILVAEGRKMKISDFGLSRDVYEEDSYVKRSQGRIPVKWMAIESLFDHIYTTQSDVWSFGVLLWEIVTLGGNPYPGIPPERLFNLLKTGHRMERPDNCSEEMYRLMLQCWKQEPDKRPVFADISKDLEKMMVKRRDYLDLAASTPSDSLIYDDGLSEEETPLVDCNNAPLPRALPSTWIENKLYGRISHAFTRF
T1 sequence (Q12809 whole entry): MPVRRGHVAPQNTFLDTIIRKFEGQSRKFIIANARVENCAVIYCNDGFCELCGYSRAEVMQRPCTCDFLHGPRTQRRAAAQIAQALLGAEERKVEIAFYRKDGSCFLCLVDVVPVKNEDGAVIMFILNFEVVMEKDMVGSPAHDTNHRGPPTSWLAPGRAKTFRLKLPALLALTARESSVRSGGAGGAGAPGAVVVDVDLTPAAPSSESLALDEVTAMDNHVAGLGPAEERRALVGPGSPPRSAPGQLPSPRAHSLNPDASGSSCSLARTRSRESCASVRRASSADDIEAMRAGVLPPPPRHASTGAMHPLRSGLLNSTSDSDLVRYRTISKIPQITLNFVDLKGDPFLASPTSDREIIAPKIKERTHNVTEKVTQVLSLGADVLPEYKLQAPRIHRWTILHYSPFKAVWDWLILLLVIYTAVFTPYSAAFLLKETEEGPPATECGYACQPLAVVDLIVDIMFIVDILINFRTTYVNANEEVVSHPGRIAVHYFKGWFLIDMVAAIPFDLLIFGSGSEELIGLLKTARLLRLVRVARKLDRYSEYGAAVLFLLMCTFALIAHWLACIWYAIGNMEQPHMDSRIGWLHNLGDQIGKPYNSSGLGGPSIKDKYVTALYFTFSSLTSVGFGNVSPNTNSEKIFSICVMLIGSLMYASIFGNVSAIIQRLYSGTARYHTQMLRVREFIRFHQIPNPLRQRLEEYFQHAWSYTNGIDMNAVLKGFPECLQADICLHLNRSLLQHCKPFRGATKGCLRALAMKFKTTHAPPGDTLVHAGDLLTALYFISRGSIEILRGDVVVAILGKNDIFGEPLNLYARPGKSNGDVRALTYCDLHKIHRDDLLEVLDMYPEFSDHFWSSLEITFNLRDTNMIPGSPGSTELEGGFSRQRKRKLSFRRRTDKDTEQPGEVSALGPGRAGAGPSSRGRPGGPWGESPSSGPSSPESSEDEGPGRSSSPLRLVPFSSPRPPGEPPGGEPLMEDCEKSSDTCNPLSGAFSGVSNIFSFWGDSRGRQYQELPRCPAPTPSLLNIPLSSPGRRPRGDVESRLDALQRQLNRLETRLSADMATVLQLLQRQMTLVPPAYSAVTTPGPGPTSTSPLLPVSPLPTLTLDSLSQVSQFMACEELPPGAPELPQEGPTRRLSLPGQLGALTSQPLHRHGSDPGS
T2 sequence (Q12809 whole entry): as above

## Cn1cc(-c2ccc3c(c2)ncn3-c2ccc(CC(=O)Nc3cc(C(C)(C)C)on3)cc2)cn1 [Pz-1, N-(5-(tert-butyl)isoxazol-3-yl)-2-(4-(5-(1-methyl-1H-pyrazol-4-yl)-1H-benzo[d]imidazol-1-yl)phenyl)acetamide]
hERG
  IC50: 10 µM
hERG (relative to RET)
  selectivity ratio: 10000
RET/C634R-V804M
  inhibition of pRET: strongly inhibited
